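48-hour exposure; five concentrations; linearly interpolated endpoints. At the GI50, growth is halved. TGI: total growth inhibition.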
System: MDA-MB-468 breast
Experiment: NCI tumour cell line growth inhibition, 48 h

Point of comparison: O=C(O)c1cc(Cc2ccc(O)c(C(=O)O)c2)ccc1O (tested in a mixture with another compound), GI50 2570 nM. Against it:
- Oc1c(I)cc(-c2nc3ccccc3s2)cc1CN(Cc1ccccn1)Cc1ccccn1 — 4.8-fold lower, 531 nM
- CCOC(=O)N[C@H]1CCc2c(Br)c(OC)c(OC)c(OC)c2-c2ccc(SC)c(=O)cc21 — lower, < 10 nM
- C/C1=C/C(=O)O[C@@H]2C[C@@H](CC[C@H](C)/C=C\C=C\CC1)O[C@@](OCCc1ccccc1)([C@@H]1CSC(=O)N1)C2 — 88-fold lower, 29.2 nM
- CS(=O)(=O)CCn1c(=O)c(Oc2ccc(F)cc2F)cc2cnc(NC3CCOCC3)nc21 — higher, > 25000 nM
- Cc1cc(C)cc(Nc2ccc([N+](=O)[O-])c(NCCN3CCOCC3)n2)c1 — 6100-fold lower, 0.419 nM
- CC(C)(C)OC(=O)CN1CCc2c(sc3ncnc(N/N=C/c4cccc5ccccc45)c23)C1 — 1.5-fold higher, 3900 nM
- COc1ccc2c(c1)cn1c3ccc(O)cc3[nH]c(=O)c21 — 11-fold lower, 236 nM
- Cc1ccc(C2CC(c3ccc(Nc4nc(NCCO)nc(Nc5ccc(Cl)cc5)n4)cc3)=Nc3c(N)nc(N)nc3N2)cc1 (configuration not stated) — 1.6-fold lower, 1650 nM
- O=S(=O)(NCCNc1cc(-c2cn(-c3ccccc3)nc2-c2cccc(O)c2)ccn1)c1ccc(Cl)cc1 — within 1.5-fold, 2780 nM
- Nc1ccc2ccc(NS(=O)(=O)N3CCCCC3)cc2c1 — 13-fold lower, 194 nM
- COc1ccc(-c2nnc(N3CCN(C(=O)CN4CCN(c5ccc(Cl)cc5)CC4)CC3)nc2-c2ccc(OC)cc2)cc1 — 7-fold higher, 17900 nM
- O=C1C(=O)c2ccccc2C(O)=C1CC=C(Cl)Cl — 6.1-fold higher, 15800 nM
- O=C(CNc1ncco1)Nc1ccc(S(=O)(=O)c2ccc(NC(=O)CNc3ncco3)cc2)cc1 — 1.8-fold lower, 1440 nM
- CCN(CC)CCOc1ccc2c(c1)C(=O)c1cc(OCCN(CC)CC)ccc1-2 — within 1.5-fold, 2640 nM
- C1=C(c2ccccc2)C(c2ccc(OCCN3CCCCC3)cc2)Oc2ccccc21 (configuration not stated) — 1.7-fold lower, 1540 nM
- CCCCCCCCCCCCCC(=O)C(C)N (configuration not stated) — within 1.5-fold, 3310 nM
- CC(CN1CCN(CC(C)Nc2ccnc3cc(Cl)ccc23)CC1)Nc1ccnc2cc(Cl)ccc12 (configuration not stated) — within 1.5-fold, 2970 nM
- [C-]#[N+][C@]12C(=O)[C@H](CCC1(C)C)C(C)(C)[C@H]1C(=O)N(C)c3cccc2c31 — 1.6-fold higher, 4020 nM
- CNC(=O)OC1C(O[C@H]2C[C@H]3[C@@H]4CC=C5C[C@@H](O)CC[C@]5(C)[C@H]4CC[C@]3(C)[C@H]2[C@H](C)C(=O)CCC(C)C)OCC(O)C1OC1OCC(O)C(O)C1OC(=O)c1ccc(OC)cc1 (some centres not stated) — 95-fold lower, 27 nM
- COc1cc(-c2cc(/C=C3\C(=O)Nc4ccccc43)[nH]n2)cc(OC)c1OC — within 1.5-fold, 2880 nM
- CN(C)CCCOc1c2ccccc2nc2c1oc1ccc(Cl)cc12 — within 1.5-fold, 2950 nM
- Cc1cc(C)n(C(=O)c2nn(-c3ccc(Cl)cc3)cc2O)n1 — 3.5-fold higher, 8900 nM
- COc1ccc(/C=C/C(=O)c2cc3c(N)c(C(=O)Nc4ccccc4C)sc3nc2C)cc1 — 15-fold lower, 167 nM
- Cc1cc2c(-c3ccc(NC(=O)[C@H](N)CC(C)(C)C)cc3C)ccnc2[nH]1 — within 1.5-fold, 2730 nM
- COc1ccc(CC(NC(=O)[C@H](C)NC(=O)CN2CCOCC2)C(=O)N[C@@H](Cc2ccccc2)C(=O)[C@@]2(C)CO2)cc1 (some centres not stated) — 15-fold lower, 174 nM
- C#Cc1cccc(Oc2ccc(NC(=O)CCl)cc2)c1 — 30-fold higher, 77900 nM
- CN1CCN(c2ccc(NC3=C(Cl)C(=O)c4ncccc4C3=O)cc2C#N)CC1 — 6.2-fold lower, 414 nM
- CCO/C=N/C1=C(C#N)C(c2ccc(F)cc2)c2sc3c(C)cccc3c2O1 (configuration not stated) — 5.1-fold lower, 504 nM
- C[C@@H](Oc1ccc2[nH]nc(/C=C/c3cnn(CCO)c3)c2c1)c1c(Cl)cncc1Cl — 1.9-fold lower, 1370 nM
- COc1cc(C2=NN(c3ccc(S(N)(=O)=O)cc3)C(c3ccc(Cl)cc3)C2)cc(OC)c1OC (configuration not stated) — within 1.5-fold, 2880 nM
- Cc1cccc2c1O/C(=C\c1ccc([N+](=O)[O-])o1)C2=O — 2-fold lower, 1290 nM
- NC(=S)N/N=C\c1nccc2c(N)cccc12 — 11-fold lower, 226 nM
- O=C(Nc1ccccc1O)c1ccc(CNC(=O)c2sccc2Nc2ccnc(C(F)(F)F)c2)cc1 — within 1.5-fold, 2010 nM
- COc1cc(NCc2ccccc2O)c2ncccc2c1 — 6-fold higher, 15400 nM
- Cc1nc2cc(Nc3nc(Nc4ccc(F)cc4)nc(N4CCN(C)CC4)n3)ccc2n1Cc1ccccc1 — 1.8-fold lower, 1430 nM
- C(=C\c1nccc2c1[nH]c1ccccc12)/c1ccccc1 — within 1.5-fold, 2040 nM
- Cc1ccc2c(c1)O/C(=C\c1ccc([N+](=O)[O-])o1)C2=O — 1.6-fold lower, 1560 nM
- CCCCCCNc1nc(N2CCOCC2)c2[nH]c(NCCCCCC)nc2n1 — 1.9-fold lower, 1380 nM

Point of comparison: CCO/C=N/C1=C(C#N)C(c2ccc(F)cc2)c2sc3c(C)cccc3c2O1 (configuration not stated), TGI 17100 nM. Against it:
- Oc1c(I)cc(-c2nc3ccccc3s2)cc1CN(Cc1ccccn1)Cc1ccccn1 — 3.3-fold lower, 5250 nM
- CCOC(=O)N[C@H]1CCc2c(Br)c(OC)c(OC)c(OC)c2-c2ccc(SC)c(=O)cc21 — within 1.5-fold, 16800 nM
- C/C1=C/C(=O)O[C@@H]2C[C@@H](CC[C@H](C)/C=C\C=C\CC1)O[C@@](OCCc1ccccc1)([C@@H]1CSC(=O)N1)C2 — 130-fold lower, 135 nM
- CS(=O)(=O)CCn1c(=O)c(Oc2ccc(F)cc2F)cc2cnc(NC3CCOCC3)nc21 — higher, > 25000 nM
- CC(C)(C)OC(=O)CN1CCc2c(sc3ncnc(N/N=C/c4cccc5ccccc45)c23)C1 — within 1.5-fold, 16300 nM
- COc1ccc2c(c1)cn1c3ccc(O)cc3[nH]c(=O)c21 — 16-fold lower, 1090 nM
- Cc1ccc(C2CC(c3ccc(Nc4nc(NCCO)nc(Nc5ccc(Cl)cc5)n4)cc3)=Nc3c(N)nc(N)nc3N2)cc1 (configuration not stated) — 5.4-fold lower, 3170 nM
- O=S(=O)(NCCNc1cc(-c2cn(-c3ccccc3)nc2-c2cccc(O)c2)ccn1)c1ccc(Cl)cc1 — 2.2-fold lower, 7660 nM
- Nc1ccc2ccc(NS(=O)(=O)N3CCCCC3)cc2c1 — higher, > 100000 nM
- COc1ccc(-c2nnc(N3CCN(C(=O)CN4CCN(c5ccc(Cl)cc5)CC4)CC3)nc2-c2ccc(OC)cc2)cc1 — 2.8-fold higher, 48300 nM
- O=C1C(=O)c2ccccc2C(O)=C1CC=C(Cl)Cl — 3.5-fold higher, 59000 nM
- O=C(O)c1cc(Cc2ccc(O)c(C(=O)O)c2)ccc1O (tested in a mixture with another compound) — within 1.5-fold, 14400 nM
- O=C(CNc1ncco1)Nc1ccc(S(=O)(=O)c2ccc(NC(=O)CNc3ncco3)cc2)cc1 — 5.4-fold lower, 3160 nM
- CCN(CC)CCOc1ccc2c(c1)C(=O)c1cc(OCCN(CC)CC)ccc1-2 — 2-fold lower, 8530 nM
- C1=C(c2ccccc2)C(c2ccc(OCCN3CCCCC3)cc2)Oc2ccccc21 (configuration not stated) — 5.7-fold lower, 3000 nM
- CCCCCCCCCCCCCC(=O)C(C)N (configuration not stated) — 1.8-fold lower, 9510 nM
- CC(CN1CCN(CC(C)Nc2ccnc3cc(Cl)ccc23)CC1)Nc1ccnc2cc(Cl)ccc12 (configuration not stated) — 1.8-fold lower, 9550 nM
- [C-]#[N+][C@]12C(=O)[C@H](CCC1(C)C)C(C)(C)[C@H]1C(=O)N(C)c3cccc2c31 — higher, > 100000 nM
- CNC(=O)OC1C(O[C@H]2C[C@H]3[C@@H]4CC=C5C[C@@H](O)CC[C@]5(C)[C@H]4CC[C@]3(C)[C@H]2[C@H](C)C(=O)CCC(C)C)OCC(O)C1OC1OCC(O)C(O)C1OC(=O)c1ccc(OC)cc1 (some centres not stated) — 5.8-fold lower, 2960 nM
- COc1cc(-c2cc(/C=C3\C(=O)Nc4ccccc43)[nH]n2)cc(OC)c1OC — within 1.5-fold, 13400 nM
- CN(C)CCCOc1c2ccccc2nc2c1oc1ccc(Cl)cc12 — 1.9-fold lower, 8800 nM
- Cc1cc(C)n(C(=O)c2nn(-c3ccc(Cl)cc3)cc2O)n1 — higher, > 100000 nM
- COc1ccc(/C=C/C(=O)c2cc3c(N)c(C(=O)Nc4ccccc4C)sc3nc2C)cc1 — higher, > 50000 nM
- Cc1cc2c(-c3ccc(NC(=O)[C@H](N)CC(C)(C)C)cc3C)ccnc2[nH]1 — 1.6-fold lower, 10600 nM
- COc1ccc(CC(NC(=O)[C@H](C)NC(=O)CN2CCOCC2)C(=O)N[C@@H](Cc2ccccc2)C(=O)[C@@]2(C)CO2)cc1 (some centres not stated) — 29-fold lower, 595 nM
- C#Cc1cccc(Oc2ccc(NC(=O)CCl)cc2)c1 — higher, > 82500 nM
- CN1CCN(c2ccc(NC3=C(Cl)C(=O)c4ncccc4C3=O)cc2C#N)CC1 — 9-fold lower, 1900 nM
- C[C@@H](Oc1ccc2[nH]nc(/C=C/c3cnn(CCO)c3)c2c1)c1c(Cl)cncc1Cl — 5.5-fold lower, 3110 nM
- COc1cc(C2=NN(c3ccc(S(N)(=O)=O)cc3)C(c3ccc(Cl)cc3)C2)cc(OC)c1OC (configuration not stated) — higher, > 100000 nM
- Cc1cccc2c1O/C(=C\c1ccc([N+](=O)[O-])o1)C2=O — 5.7-fold lower, 2990 nM
- NC(=S)N/N=C\c1nccc2c(N)cccc12 — 24-fold lower, 717 nM
- O=C(Nc1ccccc1O)c1ccc(CNC(=O)c2sccc2Nc2ccnc(C(F)(F)F)c2)cc1 — 2.9-fold lower, 5900 nM
- COc1cc(NCc2ccccc2O)c2ncccc2c1 — 2.9-fold higher, 50400 nM
- Cc1nc2cc(Nc3nc(Nc4ccc(F)cc4)nc(N4CCN(C)CC4)n3)ccc2n1Cc1ccccc1 — 5-fold lower, 3440 nM
- C(=C\c1nccc2c1[nH]c1ccccc12)/c1ccccc1 — 2.2-fold lower, 7910 nM
- Cc1ccc2c(c1)O/C(=C\c1ccc([N+](=O)[O-])o1)C2=O — 4.9-fold lower, 3500 nM
- CCCCCCNc1nc(N2CCOCC2)c2[nH]c(NCCCCCC)nc2n1 — 6.3-fold lower, 2700 nM
